Marks after values point to notes of the source that are not given here.
What was measured:
[1] = tested on: oxazolone-induced delayed-type hypersensitivity (DTH) in mice; test: Oxazolone-induced delayed-type hypersensitivity (DTH); type: in vivo; details: intravenous; for inhibition of the inflammation after the second challenge of oxazolone: FIG. 2, second challenge; for Activity (ear thickness inhibition) First Challenge: first oxazolone challenge; for Activity (ear thickness inhibition) First Challenge / Activity (ear thickness inhibition) Second Challenge: n.s. = non significant effect; for Activity (ear thickness inhibition) Second Challenge: second oxazolone challenge
Experimental: Compounds were tested for their ability to treat oxazolone-induced delayed-type hypersensitivity (DTH) in mice. On day 0, mice were sensitized with 100 μL of oxazolone in 5% acetone. On day 0, 1 and 2, mice were treated by intravenous administration of the vehicle (control) or methotrexate (MTX; positive control) or the compound at 50 mg/kg (compound 3) or 25 mg/kg (compound 1 or 10). Mice were challenged with an application of 50 μL of oxazolone on the surface of the right ear (first challenge, day 3; second challenge, day 10). Ear thickness was measured on day 4 to day 7, and on day 11 to 14. Redness and crust formation was also observed. Mice were sacrificed on day 14. TDTH (CD4) cells play an important role in regulating the intensity of the DTH response. Compounds may exert an inhibitory influence on the DTH response through its inhibition of T-cell activation and DNA, RNA and/or protein synthesis.

[2] = tested on: oxazolone-induced delayed-type hypersensitivity (DTH) in mice; test: as above; type: in vivo; details: per os; for Activity (ear thickness inhibition) First Challenge: first oxazolone challenge; for Activity (ear thickness inhibition) Second Challenge: second oxazolone challenge, n.s. = non significant effect
Fc portion of human IgG = biological target: T1, Fc portion of human IgG; test: Competitive protein A binding ELISA; details: for IC50: inhibition of binding of protein A to HRP-human IgG, assay in PBS; for binding activity, in words: refers to Table 1, bis-aminoanilino arrangement
T1 construct: fused on or other part: horseradish peroxidase chemically conjugated to the IgG (detection label)
Experimental: The competitive protein A binding ELISA assay was performed on a 96-well plate MAXISORP® surface to enhance the binding of protein A to the bottom of the plate. The wells were coated with 100 μL of protein A (0.8 μg) and incubated overnight at 4° C. After incubation, unbound protein A was removed by three washes with phosphate buffer saline (PBS). The plate was then incubated with 100 μL/well of a 2% solution of bovine serum albumin (BSA) for 1 h at 37° C. to block non specific protein binding. After incubation, the plate was washed three times with PBS. 50 μL of compound or protein A, diluted in PBS or PBS-20% DMSO at appropriate concentration, were added to the wells followed by addition of 50 μL of peroxidase-conjugated human IgG (HRP-IgG). After 1 h incubation at 37° C., the plate was washed three times with PBS to remove unbound HRP-IgG. […] The plate was then read at 405 nm on a EL 800, universal microplate reader (Bio-Tek). Data was analyzed in Microsoft Excel and the concentration of compound which inhibits 50% binding of protein A (IC50) was calculated using Prism software.

IC50 (Fc portion of human IgG) | Molecule | further results
93 nM | Nc1ccc(CCNc2nc(NCCCCCCO)nc(Nc3cccc(N)c3)n2)cc1 [Compound 1] | inhibition of the inflammation after the second challenge of oxazolone [1]: significant inhibition of the inflammation; Activity (ear thickness inhibition) First Challenge [1]: No effect; oral activity on DTH [2]: oral activity; Activity (ear thickness inhibition) First Challenge [2]: ↓ per os (p = 0.003); Activity (ear thickness inhibition) Second Challenge [2]: ↓ (n.s.)*
148 nM | Nc1ccc(CNc2nc(NCCCCCCO)nc(Nc3cccc(N)c3)n2)cc1 [Compound 2] | Activity (ear thickness inhibition) Second Challenge [1]: No effect
106 nM | Nc1ccc(CCNc2nc(NCCCCO)nc(Nc3cccc(N)c3)n2)cc1 [Compound 3] | inhibition of the inflammation after the second challenge of oxazolone [1]: significant inhibition of the inflammation; oral activity on DTH [2]: oral activity; Activity (ear thickness inhibition) First Challenge [2]: ↓ per os (p = 0.03); Activity (ear thickness inhibition) Second Challenge [2]: ↓ (n.s.)
377 nM | NCCNc1nc(NCCc2ccc(N)cc2)nc(Nc2cccc(N)c2)n1 [Compound 5] | oral activity on DTH [2]: oral activity; Activity (ear thickness inhibition) First Challenge [2]: ↓ per os (p = 0.008); Activity (ear thickness inhibition) Second Challenge [2]: ↓ (n.s.)
106 nM | Nc1ccc(CCNc2nc(NCc3cccc(N)c3)nc(Nc3cccc(N)c3)n2)cc1 [Compound 10] | Activity (ear thickness inhibition) Second Challenge [1]: No effect; oral activity on DTH [2]: oral activity; Activity (ear thickness inhibition) First Challenge [2]: No effect per os
3 nM | Nc1cccc(CNc2nc(Nc3cccc(N)c3)nc(Nc3cccc(N)c3)n2)c1 [Compound 12] | binding activity, in words (Fc portion of human IgG): potent binding activity
306 nM | COc1cccc(Nc2nc(NCCN)nc(Nc3cccc(N)c3)n2)c1 [Compound 14] | –
159 nM | Nc1cccc(CNc2nc(N)nc(Nc3cccc(N)c3)n2)c1 [Compound 16] | Activity (ear thickness inhibition) First Challenge [1]: No effect; Activity (ear thickness inhibition) Second Challenge [1]: No effect
15 nM | Nc1cccc(Nc2nc(NCCCCCCO)nc(Nc3cccc(N)c3)n2)c1 [Compound 19] | Activity (ear thickness inhibition) First Challenge [1]: ↓ (n.s.); Activity (ear thickness inhibition) Second Challenge [1]: No effect
114 nM | NCCNc1nc(Nc2cccc(N)c2)nc(Nc2cccc(N)c2)n1 [Compound 21] | –
63 nM | COc1cccc(Nc2nc(NCCO)nc(Nc3cccc(N)c3)n2)c1 [Compound 22] | –
86 nM | COc1ccc(Nc2nc(NCCO)nc(Nc3cccc(N)c3)n2)cc1 [Compound 23] | –
62 nM | Nc1cccc(Nc2nc(NCCO)nc(Nc3ccc(F)cc3)n2)c1 [Compound 28] | Activity (ear thickness inhibition) First Challenge [1]: ↓ (n.s.)
222 nM | Nc1cccc(Nc2nc(NCCO)nc(NCc3cccc(F)c3)n2)c1 [Compound 29] | –
88 nM | Nc1cccc(CCNc2nc(NCC3CC3)nc(Nc3cccc(N)c3)n2)c1 [Compound 30] | –
42 nM | Nc1cccc(Nc2nc(NCCO)nc(Nc3cccc(N)c3)n2)c1 [Compound 34] | –
68 nM | NCCCCCCNc1nc(Nc2cccc(N)c2)nc(Nc2cccc(N)c2)n1 [Compound 36] | –
312 nM | Nc1cccc(Nc2nc(NCCc3ccccc3N)nc(NCC3CC3)n2)c1 [Compound 38] | –
40 nM | Nc1cccc(Nc2nc(NCCCCO)nc(Nc3cccc(N)c3)n2)c1 [Compound 39] | –
36 nM | Nc1cccc(Nc2nc(NCCO)nc(Nc3cccc(F)c3)n2)c1 [Compound 41] | –
39 nM | Nc1cccc(Nc2nc(NCCO)nc(NCc3ccc(F)cc3)n2)c1 [Compound 42] | –
86 nM | Nc1cccc(Nc2nc(NCCO)nc(NCc3ccccc3F)n2)c1 [Compound 43] | –
56 nM | Nc1cccc(Nc2nc(NCCO)nc(Nc3ccc(Cl)cc3)n2)c1 [Compound 44] | –

Continued, molecule first:

Molecule | IC50 (Fc portion of human IgG) | further results
NCCCCCCNc1nc(NCCc2ccc(N)cc2)nc(Nc2cccc(N)c2)n1 [Compound 4] | 300 nM | –
Nc1ccc(CCNc2nc(Nc3cccc(N)c3)nc(NC3CCC3)n2)cc1 [Compound 8] | 53 nM | –
Nc1ccc(CCNc2nc(Nc3cccc(N)c3)nc(NC3CCCC3)n2)cc1 [Compound 9] | 131 nM | Activity (ear thickness inhibition) Second Challenge [1]: No effect
Nc1ccc(CCNc2nc(NCc3ccc(N)cc3)nc(Nc3cccc(N)c3)n2)cc1 [Compound 11] | 85 nM | –
Nc1ccc(CNc2nc(Nc3cccc(N)c3)nc(Nc3cccc(N)c3)n2)cc1 [Compound 13] | 1 nM | binding activity, in words (Fc portion of human IgG): potent binding activity
COc1ccc(Nc2nc(NCCN)nc(Nc3cccc(N)c3)n2)cc1 [Compound 15] | 415 nM | –
Nc1ccc(CNc2nc(N)nc(Nc3cccc(N)c3)n2)cc1 [Compound 17] | 65 nM | –
Nc1cccc(Nc2nc(N)nc(NCc3ccccc3N)n2)c1 [Compound 18] | 97 nM | –
Nc1ccc(CCNc2nc(Nc3cccc(N)c3)nc(Nc3cccc(N)c3)n2)cc1 [Compound 20] | 65 nM | –
COc1cccc(Nc2nc(NCC3CC3)nc(Nc3cccc(N)c3)n2)c1 [Compound 24] | 243 nM | –
COc1ccc(Nc2nc(NCC3CC3)nc(Nc3cccc(N)c3)n2)cc1 [Compound 25] | 75 nM | –
COc1ccc(Nc2nc(Nc3cccc(N)c3)nc(NC3CC3)n2)cc1 [Compound 26] | 126 nM | –
COc1ccc(Nc2nc(N)nc(Nc3cccc(N)c3)n2)cc1 [Compound 27] | 292 nM | –
Nc1cccc(Nc2nc(NCC3CC3)nc(Nc3cccc(N)c3)n2)c1 [Compound 31] | 38 nM | Activity (ear thickness inhibition) Second Challenge [1]: ↓ (n.s.)
Nc1cccc(Nc2nc(Nc3cccc(N)c3)nc(NC3CC3)n2)c1 [Compound 32] | 38 nM | –
Nc1cccc(Nc2nc(N)nc(Nc3cccc(N)c3)n2)c1 [Compound 33] | 170 nM | –
CN(C[C@H](O)[C@@H](O)[C@H](O)[C@H](O)CO)c1nc(Nc2cccc(N)c2)nc(Nc2cccc(N)c2)n1 [Compound 35] | 37 nM | Activity (ear thickness inhibition) Second Challenge [1]: No effect
COc1cccc(Nc2nc(Nc3cccc(N)c3)nc(Nc3cccc(OC)c3)n2)c1 [Compound 45] | 469 nM | –
Protein A (Control): Staphylococcal protein A, cell-surface bacterial protein which binds the Fc (tail) portion of most antibodies [reference compound] | 187 nM | –

Reference: US20090068169A1, “2,4,6-triamino-s-triazine-based compounds which bind to the tail (fc) portion of immunoglobulins and their use” (priority 2004, published 2009)
